In article PMC6943670, “Investigating the Binding Mode of Reversible LSD1 Inhibitors Derived from Stilbene Derivatives by 3D-QSAR, Molecular Docking, and Molecular Dynamics Simulation” (Molecules, 2019):
Where two headings read alike, the source gives them in different places. Each block holds one compound with its values, some of them ahead of it.

Assays:
LSD1 [1] = target: T1, LSD1 (Homo sapiens, UniProt O60341); test: LSD1 enzyme inhibition assay (H3K4me2 substrate, Amplex Red/HRP fluorescence)
LSD1 [2] = target: T1, LSD1; conditions: cited from earlier work
LSD1 [3] = target: T1, LSD1; parameters: method as in PMID 30448189; conditions: cited from earlier work

Structure (SMILES): COc1cc(F)c(/C=C/c2ccc(C(=O)NO)cc2)cc1OC
melting point: 159 to 160 °C

Structure (SMILES): COc1cc(Br)c(/C=C/c2ccc(/C=C/C(=O)NO)cc2)cc1OC [Compound 27]
melting point: 120 to 121 °C | IC50 (LSD1 [1]): 3980 nM

Structure (SMILES): O=C(O)c1ccc(CN2CCC(CN[C@@H]3C[C@H]3c3ccccc3)CC2)cc1 [GSK2879552]
IC50 (LSD1 [2]; inhibition of LSD1): 20 nM

Structure (SMILES): O=C(NO)c1ccc(/C=C/c2ccc3c(c2)CCO3)cc1 [Compound 33]
melting point: 193 to 194 °C | IC50 (LSD1 [1]): 1930 nM

Structure (SMILES): COc1ccc(/C=C/c2ccc(/C=C/C(=O)NO)cc2)cc1OC [Compound 24]
melting point: 205 to 206 °C | IC50 (LSD1 [1]): 4160 nM

Structure (SMILES): C#CCN(C)Cc1ccccc1 [pargyline]
inhibitory effect on LSD1 (LSD1 [2]; MAO inhibitors bonding covalently with FAD): no significant inhibitory effect | selectivity (LSD1 [2]; MAO inhibitors): poor selectivity

Structure (SMILES): COc1cc(F)c(/C=C/c2ccc(/C=C/C(=O)NO)cc2)cc1OC [Compound 25]
melting point: 185 to 186 °C | IC50 (LSD1 [1]): 3320 nM

Structure (SMILES): Cc1ccc(-c2ncc(OC[C@@H]3CCNC3)cc2-c2ccc(C#N)cc2)cc1 [GSK-354]
IC50 (LSD1 [2]; reversible LSD1 inhibitor): 90 nM

Structure (SMILES): N/C(=N\O)c1cccc(/C=C/c2ccnc(-c3cc(F)ccc3O)c2)c1 [Compound 22]
binding site by enzyme kinetics studies (LSD1 [3]): FAD region

Structure (SMILES): COc1cc(Br)c(/C=C/c2ccc(C(=O)NO)cc2)cc1OC
melting point: 163 to 164 °C

The next lines start with the values.

melting point: 266 to 267 °C | IC50 (LSD1 [1]): 1300 nM
Structure (SMILES): O=C(NO)c1ccc(/C=C/c2cc(F)cc(F)c2)cc1 [Compound 31]

IC50 (LSD1 [1]): 692 nM
Structure (SMILES): COc1cc(/C=C/c2ccc(C(=O)NO)cc2)cc(OC)c1 [Compound 29]

melting point: 197 to 198 °C | IC50 (LSD1 [1]): 816 nM
Structure (SMILES): COc1ccc(/C=C/c2ccc(C(=O)NO)cc2)cc1OC [Compound 30]

melting point: 149 to 150 °C | IC50 (LSD1 [1]): 5180 nM
Structure (SMILES): COc1cc(/C=C/c2ccc(/C=C/C(=O)NO)cc2)cc(OC)c1 [Compound 26]
